Measurements from ChEMBL document CHEMBL1126001, “Physical parameters for brian uptake: optimizing log P, log D and pKa of T H A” (Bioorg Med Chem Lett, 1991).

Legend:
physchem [1] = assay: physchem
Description: Compound was evaluated for its acid dissociation constant

Acetylcholinesterase = Acetylcholinesterase (Homo sapiens, UniProt P22303)
Description: In vitro inhibition of acetylcholinesterase isolated from human erythrocytes.

physchem [2] = settings: octanol/water
Description: Partition coefficient (logP)

physchem [3] = settings: buffer, pH 7.5
Description: Lipophilic dissociation constant is determined as a measure of partitioning of neutral molecules at pH 7.5

Chain of Acetylcholinesterase (P22303 whole entry): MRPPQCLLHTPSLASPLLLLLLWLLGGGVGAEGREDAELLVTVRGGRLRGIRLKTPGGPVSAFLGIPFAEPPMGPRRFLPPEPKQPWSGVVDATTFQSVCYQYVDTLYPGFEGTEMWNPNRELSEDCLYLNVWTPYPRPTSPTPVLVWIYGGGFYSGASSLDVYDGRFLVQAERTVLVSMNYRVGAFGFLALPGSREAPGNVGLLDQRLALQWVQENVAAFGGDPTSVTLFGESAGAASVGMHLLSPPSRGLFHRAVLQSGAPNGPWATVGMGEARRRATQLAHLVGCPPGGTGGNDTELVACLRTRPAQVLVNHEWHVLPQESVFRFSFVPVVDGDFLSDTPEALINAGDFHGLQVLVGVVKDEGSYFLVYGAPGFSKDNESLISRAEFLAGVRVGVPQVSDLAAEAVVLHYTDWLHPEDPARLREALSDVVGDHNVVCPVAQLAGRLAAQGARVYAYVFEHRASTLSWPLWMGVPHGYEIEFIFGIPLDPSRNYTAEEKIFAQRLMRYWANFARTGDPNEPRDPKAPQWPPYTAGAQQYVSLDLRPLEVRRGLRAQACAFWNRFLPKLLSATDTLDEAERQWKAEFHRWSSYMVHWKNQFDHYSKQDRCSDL

Nc1c2c(nc3c1CCC3)CCCC2 [IPIDACRINE]
pKa (physchem [1]): 10.2

Nc1c2c(nc3ccc(Cl)cc13)OCCC2
IC50 (Acetylcholinesterase): 9810 nM

Nc1c2c(nc3ccc(Cl)cc13)CCCC2
IC50 (Acetylcholinesterase): 3680 nM

Nc1c2c(nc3ccccc13)OCCC2
pKa (physchem [1]): 7.8 | IC50 (Acetylcholinesterase): 266 nM | logP (physchem [2]): 1.86 | logD (physchem [3]): 1.37

Nc1c2c(nc3cnccc13)CCCC2
pKa (physchem [1]): 7.3 | IC50 (Acetylcholinesterase): 2600 nM

COc1cccc2nc3c(c(N)c12)CCCC3
pKa (physchem [1]): 10.4 | IC50 (Acetylcholinesterase): 615 nM

Nc1c2c(nc3cccc(Cl)c13)OCCC2
pKa (physchem [1]): 6.6 | IC50 (Acetylcholinesterase): 313 nM

Nc1c2c(nc3c1CCCO3)CCC2
pKa (physchem [1]): 7.8 | IC50 (Acetylcholinesterase): 1120 nM

Cc1cccc2nc3c(c(N)c12)CCCC3
pKa (physchem [1]): 9.98 | IC50 (Acetylcholinesterase): 99 nM

Nc1c2c(nc3cccc(F)c13)CCCC2
pKa (physchem [1]): 9.1 | IC50 (Acetylcholinesterase): 78 nM

COc1cccc2nc3c(c(N)c12)CCCO3
pKa (physchem [1]): 8.11 | IC50 (Acetylcholinesterase): 606 nM

Nc1c2c(nc3cccc(Cl)c13)CCCC2
pKa (physchem [1]): 9.3 | IC50 (Acetylcholinesterase): 39 nM

Cc1cccc2nc3c(c(N)c12)CCCO3
pKa (physchem [1]): 8.06 | IC50 (Acetylcholinesterase): 150 nM | logP (physchem [2]): 2.28 | logD (physchem [3]): 1.63

Nc1c2c(nc3c1CCCO3)CCCC2
pKa (physchem [1]): 7.8 | IC50 (Acetylcholinesterase): 455 nM

Nc1c2c(nc3c1CCCC3)CCCC2 [OCTAAMINOACRIDINE]
pKa (physchem [1]): 11 | IC50 (Acetylcholinesterase): 360 nM

Nc1c2c(nc3cccc(F)c13)OCCC2
pKa (physchem [1]): 6.9 | IC50 (Acetylcholinesterase): 335 nM

Nc1c2c(nc3ncccc13)CCCC2
pKa (physchem [1]): 8.8 | IC50 (Acetylcholinesterase): 429 nM

Nc1c2c(nc3cnccc13)OCCC2
pKa (physchem [1]): 5.6 | IC50 (Acetylcholinesterase): 42 nM

Nc1c2c(nc3ncccc13)OCCC2
pKa (physchem [1]): 6.4 | IC50 (Acetylcholinesterase): 6260 nM
